In patent publication US20240132463A1, “SUBSTITUTED N-(2-(2,6-DIOXOPIPERIDIN-3-YL)-1,3-DIOXOISOINDOLIN-5-YL)ARYLSULFONAMIDE ANALOGS AS MODULATORS OF CEREBLON PROTEIN” (ST. JUDE CHILDREN'S RESEARCH HOSPITAL, INC., priority 2020, published 2024):

Each molecule was assayed against 6×His-CRBN-DDB1 protein (Homo sapiens (Human), UniProt Q96SW2) (assay: CRBN fluorescence polarization assay). Details: cereblon binding, class symbols; read-out: CRBN FP IC50.
Format: binding
Description: 6×His-CRBN-DDB1 protein (200 nM) and Cy5-O-Len probe (30 nM) were combined in 20 mM HEPES pH 7, 150 mM NaCl, 0.005% Tween-20 assay buffer. […] The plates were incubated in the dark for 1 hour at room temperature and then read on an Envision plate reader (PerkinElmer, Massachusetts, USA).

Sequence of 6×His-CRBN-DDB1 protein (Q96SW2 whole entry): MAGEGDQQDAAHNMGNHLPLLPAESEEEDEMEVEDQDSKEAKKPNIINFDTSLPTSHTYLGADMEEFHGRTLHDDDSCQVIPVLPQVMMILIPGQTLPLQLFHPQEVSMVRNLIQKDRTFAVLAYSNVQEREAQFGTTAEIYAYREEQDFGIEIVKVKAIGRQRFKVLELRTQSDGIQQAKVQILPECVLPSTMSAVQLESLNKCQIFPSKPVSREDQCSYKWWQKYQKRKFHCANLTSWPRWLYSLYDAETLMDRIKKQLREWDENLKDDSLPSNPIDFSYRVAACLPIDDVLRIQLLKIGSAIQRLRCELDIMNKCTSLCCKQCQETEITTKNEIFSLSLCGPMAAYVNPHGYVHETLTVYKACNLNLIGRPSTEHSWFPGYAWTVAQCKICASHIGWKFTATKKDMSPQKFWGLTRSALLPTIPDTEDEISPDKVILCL
Sequence of 6×His-CRBN-DDB1 protein (Q16531 whole entry partner): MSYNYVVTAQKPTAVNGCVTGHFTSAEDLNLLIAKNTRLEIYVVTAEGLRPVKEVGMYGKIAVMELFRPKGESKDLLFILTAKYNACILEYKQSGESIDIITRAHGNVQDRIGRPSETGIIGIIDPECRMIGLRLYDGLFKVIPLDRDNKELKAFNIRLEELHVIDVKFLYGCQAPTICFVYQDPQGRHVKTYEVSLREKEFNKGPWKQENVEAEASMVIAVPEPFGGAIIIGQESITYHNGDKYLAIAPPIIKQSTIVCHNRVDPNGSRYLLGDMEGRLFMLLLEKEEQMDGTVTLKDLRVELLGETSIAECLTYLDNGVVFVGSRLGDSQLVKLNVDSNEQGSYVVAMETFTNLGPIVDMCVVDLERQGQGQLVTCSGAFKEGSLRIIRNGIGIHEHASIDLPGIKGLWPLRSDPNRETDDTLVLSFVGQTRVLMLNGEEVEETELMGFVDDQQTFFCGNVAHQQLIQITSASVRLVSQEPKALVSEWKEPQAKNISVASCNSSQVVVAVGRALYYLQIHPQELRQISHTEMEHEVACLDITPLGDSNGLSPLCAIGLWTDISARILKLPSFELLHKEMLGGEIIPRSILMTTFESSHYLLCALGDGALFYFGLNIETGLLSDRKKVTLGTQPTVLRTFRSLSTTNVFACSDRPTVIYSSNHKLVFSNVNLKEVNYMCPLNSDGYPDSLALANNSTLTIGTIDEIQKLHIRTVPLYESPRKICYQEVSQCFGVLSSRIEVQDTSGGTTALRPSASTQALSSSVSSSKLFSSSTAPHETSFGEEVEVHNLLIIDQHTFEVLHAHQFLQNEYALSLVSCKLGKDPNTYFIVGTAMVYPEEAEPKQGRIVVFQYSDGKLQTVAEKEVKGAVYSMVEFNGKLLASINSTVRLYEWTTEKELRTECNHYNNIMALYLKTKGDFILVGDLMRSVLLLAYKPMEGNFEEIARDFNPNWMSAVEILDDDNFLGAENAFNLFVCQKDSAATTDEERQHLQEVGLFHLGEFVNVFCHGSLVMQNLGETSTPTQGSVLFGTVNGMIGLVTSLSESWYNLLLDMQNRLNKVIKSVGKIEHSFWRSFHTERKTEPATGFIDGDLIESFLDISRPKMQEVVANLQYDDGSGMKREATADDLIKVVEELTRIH

| Structure (SMILES) | IC50 [nM] |
| --- | --- |
| Cc1ccc(S(=O)(=O)Nc2ccc3c(c2)CN(C2CCC(=O)NC2=O)C3=O)cc1Cl (stereo not drawn) [Compound 52, 3-chloro-N-(2-(2,6-dioxopiperidin-3-yl)-1-oxoisoindolin-5-yl)-4-methylbenzenesulfonamide] | < 1000 |
| Cc1ccccc1S(=O)(=O)Nc1ccc2c(c1)CN(C1CCC(=O)NC1=O)C2=O (stereo not drawn) [Compound 54, N-(2-(2,6-dioxopiperidin-3-yl)-1-oxoisoindolin-5-yl)-2-methylbenzenesulfonamide] | < 1000 |
| Cc1ccc(F)c(S(=O)(=O)Nc2ccc3c(c2)C(=O)N(C2CCC(=O)NC2=O)C3)c1 (stereo not drawn) [Compound 34, N-(2-(2,6-dioxopiperidin-3-yl)-3-oxoisoindolin-5-yl)-2-fluoro-5-methylbenzenesulfonamide] | < 1000 |
| O=C1CCC(N2Cc3cc(NS(=O)(=O)c4cccc(C(F)(F)F)c4)ccc3C2=O)C(=O)N1 (stereo not drawn) [Compound 50, N-(2-(2,6-dioxopiperidin-3-yl)-1-oxoisoindolin-5-yl)-3-(trifluoromethyl)benzenesulfonamide] | < 1000 |
| Cc1cccc(S(=O)(=O)Nc2ccc3c(c2)CN(C2CCC(=O)NC2=O)C3=O)c1 (stereo not drawn) [Compound 45, N-(2-(2,6-dioxopiperidin-3-yl)-1-oxoisoindolin-5-yl)-3-methylbenzenesulfonamide] | < 1000 |
| CC(=O)Nc1ccc(S(=O)(=O)Nc2ccc3c(c2)C(=O)N(C2CCC(=O)NC2=O)C3=O)cc1 (stereo not drawn) [Compound 13, N-(4-(N-(2-(2,6-dioxopiperidin-3-yl)-1,3-dioxoisoindolin-5-yl)sulfamoyl)phenyl)acetamide] | < 1000 |
| O=C1CCC(N2C(=O)c3ccc(NS(=O)(=O)c4cccc(Cl)c4Cl)cc3C2=O)C(=O)N1 (stereo not drawn) [Compound 88, 2,3-dichloro-N-(2-(2,6-dioxopiperidin-3-yl)-1,3-dioxoisoindolin-5-yl)benzenesulfonamide] | < 1000 |
| O=C1CCC(N2Cc3ccc(NS(=O)(=O)c4cccc(OC(F)(F)F)c4)cc3C2=O)C(=O)N1 (stereo not drawn) [Compound 27, N-(2-(2,6-dioxopiperidin-3-yl)-3-oxoisoindolin-5-yl)-3-(trifluoromethoxy)benzenesulfonamide] | < 1000 |
| O=C1CCC(N2C(=O)c3ccc(NS(=O)(=O)c4ccc5c(c4)OCCO5)cc3C2=O)C(=O)N1 (stereo not drawn) [Compound 59, N-(2-(2,6-dioxopiperidin-3-yl)-1,3-dioxoisoindolin-5-yl)-2,3-dihydrobenzo[b][1,4]dioxine-6-sulfonamide] | < 1000 |
| Cc1ccc(S(=O)(=O)Nc2ccc3c(c2)C(=O)N(C2CCC(=O)NC2=O)C3=O)cc1C (stereo not drawn) [Compound 93, N-(2-(2,6-dioxopiperidin-3-yl)-1,3-dioxoisoindolin-5-yl)-3,4-dimethylbenzenesulfonamide] | < 1000 |
| O=C1CCC(N2Cc3ccc(NS(=O)(=O)c4ccccc4)cc3C2=O)C(=O)N1 (stereo not drawn) [Compound 22, N-(2-(2,6-dioxopiperidin-3-yl)-3-oxoisoindolin-5-yl)benzenesulfonamide] | < 1000 |
| O=C1CCC(N2Cc3cc(NS(=O)(=O)c4ccc(F)c(Cl)c4)ccc3C2=O)C(=O)N1 (stereo not drawn) [Compound 49, 3-chloro-N-(2-(2,6-dioxopiperidin-3-yl)-1-oxoisoindolin-5-yl)-4-fluorobenzenesulfonamide] | < 1000 |
| CC(C)(C)c1ccc(S(=O)(=O)Nc2ccc3c(c2)CN(C2CCC(=O)NC2=O)C3=O)cc1 (stereo not drawn) [Compound 46, 4-(tert-butyl)-N-(2-(2,6-dioxopiperidin-3-yl)-1-oxoisoindolin-5-yl)benzenesulfonamide] | < 1000 |
| O=C1CCC(N2C(=O)c3ccc(NS(=O)(=O)c4cc(F)c(Cl)cc4F)cc3C2=O)C(=O)N1 (stereo not drawn) [Compound 66, 4-chloro-N-(2-(2,6-dioxopiperidin-3-yl)-1,3-dioxoisoindolin-5-yl)-2,5-difluorobenzenesulfonamide] | < 1000 |
| O=C1CCC(N2C(=O)c3ccc(NS(=O)(=O)c4ccc(C5CCCCC5)cc4)cc3C2=O)C(=O)N1 (stereo not drawn) [Compound 80, 4-cyclohexyl-N-(2-(2,6-dioxopiperidin-3-yl)-1,3-dioxoisoindolin-5-yl)benzenesulfonamide] | 1000 to 10000 |
| Cc1ccccc1S(=O)(=O)Nc1ccc2c(c1)C(=O)N(C1CCC(=O)NC1=O)C2 (stereo not drawn) [Compound 35, N-(2-(2,6-dioxopiperidin-3-yl)-3-oxoisoindolin-5-yl)-2-methylbenzenesulfonamide] | < 1000 |
| O=C1CCC(N2Cc3ccc(NS(=O)(=O)c4cccc(C(F)(F)F)c4)cc3C2=O)C(=O)N1 (stereo not drawn) [Compound 32, N-(2-(2,6-dioxopiperidin-3-yl)-3-oxoisoindolin-5-yl)-3-(trifluoromethyl)benzenesulfonamide] | < 1000 |
| O=C1CCC(N2Cc3cc(NS(=O)(=O)c4ccccc4)ccc3C2=O)C(=O)N1 (stereo not drawn) [Compound 38, N-(2-(2,6-dioxopiperidin-3-yl)-1-oxoisoindolin-5-yl)benzenesulfonamide] | 1000 to 10000 |
| O=C1CCC(N2C(=O)c3ccc(NS(=O)(=O)c4cc(Cl)cc(Cl)c4)cc3C2=O)C(=O)N1 (stereo not drawn) [Compound 6, 3,5-dichloro-N-(2-(2,6-dioxopiperidin-3-yl)-1,3-dioxoisoindolin-5-yl)benzenesulfonamide] | < 1000 |
| Cc1cc(C)c(S(=O)(=O)Nc2ccc3c(c2)C(=O)N(C2CCC(=O)NC2=O)C3=O)c(C)c1 (stereo not drawn) [Compound 68, N-(2-(2,6-dioxopiperidin-3-yl)-1,3-dioxoisoindolin-5-yl)-2,4,6-trimethylbenzenesulfonamide] | < 1000 |
| O=C1CCC(N2C(=O)c3ccc(NS(=O)(=O)c4ccc5ncsc5c4)cc3C2=O)C(=O)N1 (stereo not drawn) [Compound 86, N-(2-(2,6-dioxopiperidin-3-yl)-1,3-dioxoisoindolin-5-yl)benzo[d]thiazole-6-sulfonamide] | < 1000 |
| Cc1cccc(S(=O)(=O)Nc2ccc3c(c2)C(=O)N(C2CCC(=O)NC2=O)C3=O)c1 (stereo not drawn) [Compound 19, N-(2-(2,6-dioxopiperidin-3-yl)-1,3-dioxoisoindolin-5-yl)-3-methylbenzenesulfonamide] | < 1000 |
| O=C1CCC(N2C(=O)c3ccc(NS(=O)(=O)c4ccc(F)cc4F)cc3C2=O)C(=O)N1 (stereo not drawn) [Compound 74, N-(2-(2,6-dioxopiperidin-3-yl)-1,3-dioxoisoindolin-5-yl)-2,4-difluorobenzenefylfonamide] | 1000 to 10000 |
| O=C1CCC(N2Cc3cc(NS(=O)(=O)c4cccc(OC(F)(F)F)c4)ccc3C2=O)C(=O)N1 (stereo not drawn) [Compound 43, N-(2-(2,6-dioxopiperidin-3-yl)-1-oxoisoindolin-5-yl)-3-(trifluoromethoxy)benzenesulfonamide] | < 1000 |
| Cc1cc(S(=O)(=O)Nc2ccc3c(c2)C(=O)N(C2CCC(=O)NC2=O)C3=O)c(C)o1 (stereo not drawn) [Compound 84, N-(2-(2,6-dioxopiperidin-3-yl)-1,3-dioxoisoindolin-5-yl)-2,5-dimethylfuran-3-sulfonamide] | < 1000 |
| O=C1CCC(N2Cc3cc(NS(=O)(=O)c4ccccc4OC(F)(F)F)ccc3C2=O)C(=O)N1 (stereo not drawn) [Compound 56, N-(2-(2,6-dioxopiperidin-3-yl)-1-oxoisoindolin-5-yl)-2-(trifluoromethoxy)benzenesulfonamide] | < 1000 |
| COc1cccc(S(=O)(=O)Nc2ccc3c(c2)CN(C2CCC(=O)NC2=O)C3=O)c1 (stereo not drawn) [Compound 47, N-(2-(2,6-dioxopiperidin-3-yl)-1-oxoisoindolin-5-yl)-3-methoxybenzenesulfonamide] | < 1000 |
